TGI data for 17 compounds are collected here from PubChem BioAssay (NCI).

Test systems include DU-145 prostate; HCT-15 colon; HT29 colon; KM12 colon; M14 melanoma; MDA-MB-231 breast; MOLT-4 leukemia; UACC-62 melanoma; HS 578T breast; SNB-75 CNS.
Common to all, as to test: DTP human tumour cell line panel, 48 h

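Values below derive from 48-hour exposures of cells grown in 96-well plates, with endpoints linearly interpolated between the two concentrations bracketing the appropriate inhibition level. TGI denotes the concentration required for complete inhibition of growth.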

The TGI is the concentration giving total growth inhibition. A lower TGI goes with more potent growth arrest. For `O=C(CCc1cc(O)cc(O)c1)NCCCNC(=O)CCc1cc(O)cc(O)c1`, the concentration for total growth inhibition (TGI) in the experiment with DU-145 prostate, with HCT-15 colon, with HT29 colon, in the experiment with KM12 colon, with M14 melanoma and in the experiment with MDA-MB-231 breast was over 100 µM each time. In addition, the total growth inhibition concentration (TGI) with MOLT-4 leukemia and in the experiment on UACC-62 melanoma was over 100 µM throughout.
For `CC(C)(C)OC(=O)NC(Cc1ccccc1)NC(=O)NC(=O)OCc1ccccc1` (stereo unspecified), the TGI with DU-145 prostate, in the experiment on HCT-15 colon, in the experiment on HS 578T breast, in the experiment with HT29 colon, with KM12 colon and in the experiment with M14 melanoma was over 100 µM in each case. For the same compound, the values for the total growth inhibition concentration (TGI) in the experiment with MOLT-4 leukemia, in the experiment with SNB-75 CNS and with UACC-62 melanoma were over 100 µM, 73.2 µM and over 100 µM, respectively.
Take `COc1ccccc1CN=C1Nc2ccncc2S(=O)(=O)N1c1ccccc1`: the total growth inhibition concentration (TGI) in the experiment on DU-145 prostate, in the experiment with HCT-15 colon, in the experiment with HS 578T breast, in the experiment with HT29 colon, with KM12 colon and in the experiment with M14 melanoma was over 100 µM each time. In addition, the total growth inhibition concentration (TGI) in the experiment with MOLT-4 leukemia and in the experiment on UACC-62 melanoma was over 100 µM in each case.
Turning to `COC(=O)[C@@H]1CCCCC[C@H]2C(CO)=C(C)C(=O)C12` (stereo partly specified), the concentration for total growth inhibition (TGI) in the experiment with HCT-15 colon, in the experiment with HT29 colon, in the experiment on KM12 colon, in the experiment with M14 melanoma, in the experiment on MOLT-4 leukemia and in the experiment with SNB-75 CNS was over 100 µM each time. The compound also came in with a TGI in the experiment with UACC-62 melanoma of over 100 µM.
As to `CCOC(=O)C1(C#N)C(c2ccccc2)CC(O)(c2ccc(Cl)cc2)C(C(=O)c2ccc(Cl)cc2)C1c1ccccc1` (stereo unspecified), the TGI was over 100 µM in the experiment with HCT-15 colon; over 100 µM in the experiment on HT29 colon; over 100 µM in the experiment with KM12 colon; over 100 µM with M14 melanoma; over 100 µM in the experiment on MOLT-4 leukemia; 48.9 µM in the experiment on SNB-75 CNS. The TGI with UACC-62 melanoma is over 100 µM.
Regarding `COC(=O)C(=O)C(C(=O)C(=O)Nc1cccc(C(C)=O)c1)c1nc2ccccc2[nH]c1=O` (stereo unspecified), the concentration for total growth inhibition (TGI) with HCT-15 colon, in the experiment with HT29 colon, in the experiment on KM12 colon, in the experiment on M14 melanoma, in the experiment on MOLT-4 leukemia and in the experiment on SNB-75 CNS was over 100 µM throughout. In the experiment with UACC-62 melanoma, this compound gave a TGI of over 100 µM.
As for `CN(C)/N=C(/c1nc2ccc(Cl)cc2[nH]c1=O)C(O)c1ccc(C(O)/C(=N\N(C)C)c2nc3ccc(Cl)cc3[nH]c2=O)cc1` (stereo unspecified), the total growth inhibition concentration (TGI) in the experiment on HT29 colon, with KM12 colon, in the experiment with M14 melanoma, in the experiment on MOLT-4 leukemia and in the experiment on UACC-62 melanoma was over 100 µM each time.
For `S=C(N/N=C\C(=N/NC(=S)N1CCCCC1)c1ccccc1)N1CCCCC1`, the TGI with DU-145 prostate was found to be 3.02 µM; with HCT-15 colon it was 5.1 µM; in the experiment with HS 578T breast, 5.23 µM; in the experiment with HT29 colon, 4.61 µM; in the experiment on KM12 colon it was 3.98 µM; in the experiment on M14 melanoma it was 3.61 µM. Also, the concentration for total growth inhibition (TGI) with SNB-75 CNS came out at 3.72 µM; in the experiment with UACC-62 melanoma, 4.1 µM.
As to `N#C/C(C(=O)Nc1ccc(Cl)cc1)=C(/N)N1CCCC1`, the concentration for total growth inhibition (TGI) with DU-145 prostate, in the experiment on HCT-15 colon, in the experiment with KM12 colon, with M14 melanoma, with MOLT-4 leukemia and with SNB-75 CNS was over 100 µM throughout. The compound further gave a TGI with UACC-62 melanoma of over 100 µM.
In the case of `NCCCCNCCCNC(=O)c1nc(-c2nc(CCN)sc2Cl)sc1Cl`, the TGI in the experiment with HCT-15 colon, in the experiment on HT29 colon, in the experiment on KM12 colon, in the experiment on M14 melanoma, in the experiment with MOLT-4 leukemia and in the experiment with SNB-75 CNS was over 100 µM throughout. This compound registered a TGI in the experiment with UACC-62 melanoma of over 100 µM.
In the case of `CCOC(=O)c1s/c(=N\Nc2nc3ccccc3cc2C2OCCO2)n(Cc2ccccc2)c1C`, the TGI with HCT-15 colon, with HT29 colon, in the experiment on KM12 colon, in the experiment with M14 melanoma, in the experiment on MOLT-4 leukemia and with SNB-75 CNS was over 100 µM throughout. Also, the TGI with UACC-62 melanoma was over 100 µM.
For `O=C1C=CC=C/C1=C1\N=C(c2ccccc2OCC(=O)c2ccccc2)SS1`, the TGI in the experiment with HCT-15 colon, in the experiment with HS 578T breast, with HT29 colon, in the experiment on KM12 colon, in the experiment on M14 melanoma and in the experiment on MDA-MB-231 breast was over 100 µM in each case. The TGI was 47.2 µM with MOLT-4 leukemia, 65.8 µM in the experiment on SNB-75 CNS and over 100 µM in the experiment with UACC-62 melanoma.
In the case of `C/C(Cl)=N\OC(=O)Nc1ccc(C)cc1`, the total growth inhibition concentration (TGI) was determined as 31.5 µM with HCT-15 colon; 83 µM with HS 578T breast; 41.6 µM in the experiment with HT29 colon; 35.1 µM in the experiment on KM12 colon; 30.9 µM in the experiment with M14 melanoma; 37.5 µM in the experiment with MDA-MB-231 breast. Moreover, the total growth inhibition concentration (TGI) in the experiment with SNB-75 CNS is 26.3 µM.
With `CC(C)N1CC2CC(CN(C(=O)c3ccccc3)C2)C1`, the TGI with HCT-15 colon, in the experiment with HT29 colon, with KM12 colon, in the experiment on M14 melanoma, in the experiment with MOLT-4 leukemia and in the experiment on SNB-75 CNS was over 100 µM in each case. The concentration for total growth inhibition (TGI) in the experiment on UACC-62 melanoma was over 100 µM.
Turning to `CN(C)CCNC(=O)c1cc(Cl)cc2ccc(-c3ccccc3)nc12`, the total growth inhibition concentration (TGI) in the experiment with HCT-15 colon was found to be 9.49 µM; in the experiment with HT29 colon it was 10.7 µM; in the experiment on KM12 colon it was 22.2 µM; in the experiment with MOLT-4 leukemia, 2.92 µM; in the experiment with SNB-75 CNS, 14 µM; with UACC-62 melanoma, 6.36 µM.
On to `COC(=O)C1C(C(=O)OC)C2(OC(c3ccc(Cl)cc3)=CC2=O)C12OC(c1ccc(Cl)cc1)=CC2=O` (stereo unspecified), for which the TGI in the experiment with DU-145 prostate is over 100 µM; in the experiment with HCT-15 colon it was 35.2 µM; in the experiment with HS 578T breast, over 100 µM; in the experiment on HT29 colon, 45.2 µM; in the experiment on M14 melanoma, 42.8 µM; in the experiment on MDA-MB-231 breast, 78.6 µM. Also, the values for the TGI with MOLT-4 leukemia and with UACC-62 melanoma were 49.2 µM and 32.8 µM, respectively.
In the case of `CCCCSc1nsc(N(C(=O)c2ccccc2)C(=O)c2ccccc2)n1`, the total growth inhibition concentration (TGI) was over 100 µM in the experiment on DU-145 prostate; over 100 µM in the experiment with HCT-15 colon; 89.7 µM in the experiment with HS 578T breast; 82.5 µM in the experiment with HT29 colon; over 100 µM in the experiment on KM12 colon; over 100 µM with M14 melanoma. Further, the TGI in the experiment on MOLT-4 leukemia worked out at 59.5 µM; with SNB-75 CNS, 73.8 µM; in the experiment with UACC-62 melanoma, 60.1 µM.
